Reference: ChEMBL document CHEMBL3045222, “Synthesis of novel benzimidazole derivatives: as potent analgesic agent” (2013)

How the values were obtained:
Assay type in all cases: functional
Rattus norvegicus [1] = test: Analgesic activity in Rattus norvegicus (rat) assessed as time taken to withdraw tail in response to heat stress at 50 mg/kg, po after 30 min by tail flick method based analgesiometer analysis (reference value: 5.50 +/-0.43 secs)
Rattus norvegicus [2] = test: Analgesic activity in Rattus norvegicus (rat) assessed as time taken to withdraw tail in response to heat stress at 50 mg/kg, po after 60 min by tail flick method based analgesiometer analysis (reference value: 6.5 +/-0.22 secs)
Rattus norvegicus [3] = test: Analgesic activity in Rattus norvegicus (rat) assessed as time taken to withdraw tail in response to heat stress at 50 mg/kg, po after 90 min by tail flick method based analgesiometer analysis (reference value: 6.00 +/-0.36 secs)
Rattus norvegicus [4] = test: Analgesic activity in Rattus norvegicus (rat) assessed as time taken to withdraw tail in response to heat stress at 50 mg/kg, po after 120 min by tail flick method based analgesiometer analysis (reference value: 5.16 +/-0.31 secs)

| SMILES | Time (Rattus norvegicus [1]) | Time (Rattus norvegicus [2]) | Time (Rattus norvegicus [3]) | Time (Rattus norvegicus [4]) |
| --- | --- | --- | --- | --- |
| CCCCn1c(-c2c(O)ccc3ccccc23)nc2ccc([N+](=O)[O-])cc21 | 6.66 s | 6.5 s | 6 s | 4.83 s |
| CCCCn1c(-c2c(O)ccc3ccccc23)nc2ccccc21 | 10.66 s | 10.5 s | 9.66 s | 6.83 s |
| CCCCn1c(-c2c(O)ccc3ccccc23)nc2ccc(OC)cc21 | 8.66 s | 9.33 s | 7.66 s | 6.66 s |
| COc1ccc2nc(-c3c(O)ccc4ccccc34)n(C)c2c1 | 10.66 s | 10.33 s | 8.5 s | 6.83 s |
| Cn1c(-c2c(O)ccc3ccccc23)nc2ccccc21 | 6.5 s | 7 s | 6 s | 5.16 s |
| O=C(O)Cc1ccccc1Nc1c(Cl)cccc1Cl [DICLOFENAC] | 10.83 s | 11.66 s | 10 s | 7 s |
| Cn1c(-c2c(O)ccc3ccccc23)nc2ccc([N+](=O)[O-])cc21 | 10.5 s | 11.5 s | 6.83 s | 7 s |
